From patent US7385063B2, “Method for preparing imidazole derivatives” (Chugai Seiyaku Kabushiki Kaisha, priority 2001, dated 2008)

Test system: not given
Test: not given
Settings: not given

Q: With `O=C(NCc1ccccc1)Nc1ccc(C(O)(C(F)(F)F)C(F)(F)F)cc1` [Example 3, N-benzyl-N′-{4-[2,2,2-trifluoro-1-hydroxy-1-(trifluoromethyl)ethyl]phenyl}urea] as the compound, how does the melting point read?
A: Its melting point is 163 to 164 °C (dec.).

Molecular target: T1, malonyl-CoA decarboxylase prepared from rat heart (Rattus norvegicus, UniProt Q920F5)
T1 construct: malonyl-CoA decarboxylase prepared from rat heart; from tissue; host or cells: rat heart
T1 sequence (Q920F5 39-492): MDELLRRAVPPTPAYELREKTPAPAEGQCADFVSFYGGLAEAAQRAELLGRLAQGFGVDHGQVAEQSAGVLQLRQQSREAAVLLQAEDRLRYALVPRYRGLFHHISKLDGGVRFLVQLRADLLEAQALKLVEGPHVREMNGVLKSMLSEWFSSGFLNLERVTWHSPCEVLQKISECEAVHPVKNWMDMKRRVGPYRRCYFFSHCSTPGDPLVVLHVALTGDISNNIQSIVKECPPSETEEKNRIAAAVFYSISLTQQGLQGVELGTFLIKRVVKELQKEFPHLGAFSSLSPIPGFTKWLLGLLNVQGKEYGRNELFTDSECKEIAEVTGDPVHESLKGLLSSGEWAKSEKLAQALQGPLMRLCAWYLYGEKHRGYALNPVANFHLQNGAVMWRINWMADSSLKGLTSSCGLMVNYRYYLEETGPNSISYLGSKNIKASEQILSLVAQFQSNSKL
Test: In vitro MCD inhibitory assay (spectrophotometric, 96 well)
Assay type: biochemical
Settings: concentration causing 50% inhibition of MCD activity, read-out: IC50 of the MCD inhibitors
Description: The following reagents are added into a 96 well titer plate: Tris-HCl buffer, 20 μL; DTE, 10 μL; I-malate, 20 μL; NAD, 10 μL; NADH, 25 μL; water, 80 μL; malic dehydrogenase, 5 μL. The contents are mixed and incubated for 2 min followed by the addition of 5 μL of citrate synthase.

Q: For `Cc1cc(-c2ccncc2)n(-c2ccc(C(O)(C(F)(F)F)C(F)(F)F)cc2)n1` [Example 8-28], which IC50 is on record?
A: Its IC50 is 223 nM.

Q: For `O=C(N1CCOCC1)N(CCCCc1nnn[nH]1)c1ccc(C(O)(C(F)(F)F)C(F)(F)F)cc1` [Example 4-114], which IC50 is on record?
A: The IC50 was 10 nM.

Q: With `O=C(O)CCCCN(C(=O)c1ccncc1)c1ccc(C(O)(C(F)(F)F)C(F)(F)F)cc1` [Example 1-3] as the compound, how does the IC50 read?
A: Its IC50 is 7 nM.

Q: Which IC50 does the source give for `N#Cc1cccc(CS(=O)(=O)c2nccn2-c2ccc(C(O)(C(F)(F)F)C(F)(F)F)cc2)c1` [Example 6-1] here?
A: The IC50 was 18 nM.

Q: Which IC50 does the source give for `O=C(N1CCOCC1)N(CCCF)c1ccc(C(O)(C(F)(F)F)C(F)(F)F)cc1` [Example 4-130] here?
A: The IC50 was 36 nM.

Q: Which IC50 does the source give for `OC(c1ccc(-n2nc(-c3ccccn3)cc2-c2ccccn2)cc1)(C(F)(F)F)C(F)(F)F` [Example 8-4] here?
A: The IC50 was 557 nM.

Q: For `O=S(=O)(Nc1ccc(C(O)(C(F)(F)F)C(F)(F)F)cc1)N1CCCCC1` [Example 2-5], which IC50 is on record?
A: The IC50 was 604 nM.

Q: Which IC50 does the source give for `CCN(CCC#N)C(=O)N(CCCCC(=O)O)c1ccc(C(O)(C(F)(F)F)C(F)(F)F)cc1` [Example 4-94] here?
A: The IC50 was 9 nM.

Test system: human breast cancer cells
Test: not given
Settings: breast carcinoma cells; Pizer et al.; cited from earlier work

Q: For `CCCCCCCCCCCCCCOc1ccc(C(=O)O)o1` [TOFA, 5-(tetradecyloxy)-2-furoic acid], which “malonyl-CoA level, of the control” value is on record?
A: The value was 60%.
